{"source": "ChEMBL document CHEMBL1201862", "about": "“PubChem BioAssay data set” (2004)", "key": {"[1]": {"target": "T1, Long-chain-fatty-acid--AMP ligase FadD28 (Mycobacterium tuberculosis, UniProt P9WQ59)", "T1 sequence (P9WQ59 whole entry)": "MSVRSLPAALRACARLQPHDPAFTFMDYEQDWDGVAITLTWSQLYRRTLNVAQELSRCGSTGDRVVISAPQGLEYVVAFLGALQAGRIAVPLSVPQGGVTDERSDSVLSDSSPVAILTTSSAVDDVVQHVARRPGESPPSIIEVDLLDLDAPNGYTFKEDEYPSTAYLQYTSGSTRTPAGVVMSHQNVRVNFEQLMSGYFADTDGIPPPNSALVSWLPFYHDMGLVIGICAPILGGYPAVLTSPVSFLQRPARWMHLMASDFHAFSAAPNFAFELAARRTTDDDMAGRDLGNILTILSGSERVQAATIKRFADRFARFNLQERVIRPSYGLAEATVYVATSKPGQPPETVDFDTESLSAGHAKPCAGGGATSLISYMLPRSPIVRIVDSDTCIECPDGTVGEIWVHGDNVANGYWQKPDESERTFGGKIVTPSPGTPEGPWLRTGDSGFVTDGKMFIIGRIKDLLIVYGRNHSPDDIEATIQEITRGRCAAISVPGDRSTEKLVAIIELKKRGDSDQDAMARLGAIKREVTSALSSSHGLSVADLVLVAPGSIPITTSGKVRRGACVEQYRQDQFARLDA", "assay": "Fluorescence polarization aasay to screen for inhibitors that compete for the binding of FadD28 to a bisubstrate Measured in Biochemical System Using Plate Reader - 2147-01_Inhibitor_Dose_CherryPick_Activity.", "assay_type": "functional, Mycobacterium tuberculosis H37Rv"}, "Protein skinhead-1": {"target": "T2, Protein skinhead-1 (Caenorhabditis elegans, UniProt P34707)", "T2 sequence (P34707 whole entry)": "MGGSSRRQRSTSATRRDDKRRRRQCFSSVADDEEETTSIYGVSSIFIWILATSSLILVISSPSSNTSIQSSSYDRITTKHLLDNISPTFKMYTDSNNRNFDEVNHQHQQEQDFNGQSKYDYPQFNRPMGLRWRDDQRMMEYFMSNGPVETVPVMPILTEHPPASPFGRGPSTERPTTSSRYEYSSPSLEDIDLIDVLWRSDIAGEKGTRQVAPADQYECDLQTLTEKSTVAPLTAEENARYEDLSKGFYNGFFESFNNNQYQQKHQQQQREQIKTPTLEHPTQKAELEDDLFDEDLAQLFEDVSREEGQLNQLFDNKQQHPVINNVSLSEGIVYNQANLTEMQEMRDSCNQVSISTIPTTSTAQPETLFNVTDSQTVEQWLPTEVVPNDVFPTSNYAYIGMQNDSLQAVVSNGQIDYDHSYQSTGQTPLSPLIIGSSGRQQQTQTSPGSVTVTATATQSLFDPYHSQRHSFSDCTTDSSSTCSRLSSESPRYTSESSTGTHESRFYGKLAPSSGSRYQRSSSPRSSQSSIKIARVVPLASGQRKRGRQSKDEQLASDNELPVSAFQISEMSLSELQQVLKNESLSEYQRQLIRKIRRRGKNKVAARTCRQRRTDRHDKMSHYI", "assay_type": "functional"}, "[2]": {"target": "Glyceraldehyde-3-phosphate dehydrogenase (Homo sapiens, UniProt P04406)", "sequence (P04406 whole entry)": "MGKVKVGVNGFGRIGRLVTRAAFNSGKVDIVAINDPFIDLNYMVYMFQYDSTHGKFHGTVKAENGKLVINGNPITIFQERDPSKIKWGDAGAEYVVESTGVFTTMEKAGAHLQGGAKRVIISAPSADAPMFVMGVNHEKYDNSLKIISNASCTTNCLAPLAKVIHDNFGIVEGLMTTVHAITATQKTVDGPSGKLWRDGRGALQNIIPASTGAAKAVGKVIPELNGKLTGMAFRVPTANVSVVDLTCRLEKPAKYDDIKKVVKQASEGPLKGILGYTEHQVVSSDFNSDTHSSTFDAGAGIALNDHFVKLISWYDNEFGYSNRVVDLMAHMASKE"}, "[3]": {"target": "T3, Alkaline phosphatase, tissue-nonspecific isozyme (Homo sapiens, UniProt P05186)", "T3 sequence (P05186 whole entry)": "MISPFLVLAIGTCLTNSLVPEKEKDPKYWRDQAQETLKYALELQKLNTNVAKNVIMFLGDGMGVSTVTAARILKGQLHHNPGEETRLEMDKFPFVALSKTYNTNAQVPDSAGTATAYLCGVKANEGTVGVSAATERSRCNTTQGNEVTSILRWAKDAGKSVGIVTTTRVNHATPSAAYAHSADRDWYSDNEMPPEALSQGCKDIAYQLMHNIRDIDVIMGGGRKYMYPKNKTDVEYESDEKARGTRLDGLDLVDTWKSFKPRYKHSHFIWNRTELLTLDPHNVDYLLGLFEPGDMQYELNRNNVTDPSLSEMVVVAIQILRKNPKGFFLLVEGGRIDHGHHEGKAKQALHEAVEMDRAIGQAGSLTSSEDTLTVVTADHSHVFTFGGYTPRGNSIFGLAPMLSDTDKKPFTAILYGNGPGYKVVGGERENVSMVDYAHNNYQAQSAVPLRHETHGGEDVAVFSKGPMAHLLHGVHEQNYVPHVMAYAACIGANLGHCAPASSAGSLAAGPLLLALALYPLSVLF", "assay": "potency against alkaline phosphatase TNAP – biochemical, luminescent, dose response, SAR follow-up (AID 1056)"}, "[4]": {"target": "T4, Microphthalmia-associated transcription factor (Homo sapiens, UniProt O75030)", "T4 sequence (O75030 whole entry)": "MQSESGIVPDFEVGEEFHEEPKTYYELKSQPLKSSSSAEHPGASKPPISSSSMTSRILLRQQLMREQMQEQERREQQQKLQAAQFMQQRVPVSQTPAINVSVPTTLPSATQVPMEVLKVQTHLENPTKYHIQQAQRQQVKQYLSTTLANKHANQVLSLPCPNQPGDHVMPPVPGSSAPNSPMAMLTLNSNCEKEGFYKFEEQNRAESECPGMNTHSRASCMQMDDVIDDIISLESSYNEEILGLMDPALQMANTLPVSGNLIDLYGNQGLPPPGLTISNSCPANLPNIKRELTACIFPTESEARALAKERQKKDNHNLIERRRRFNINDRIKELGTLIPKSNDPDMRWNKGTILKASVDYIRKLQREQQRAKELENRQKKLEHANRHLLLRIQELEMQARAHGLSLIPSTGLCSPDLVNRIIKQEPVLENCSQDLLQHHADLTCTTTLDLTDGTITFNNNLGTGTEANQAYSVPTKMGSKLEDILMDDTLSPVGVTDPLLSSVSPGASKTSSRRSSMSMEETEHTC", "assay": "reducers of TRPM1 reporter luminescence, concentration series – cell-based, SK-MEL-5, cherry-picked, set 3, MITF inhibitor project, dose response (AID 493073);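 also: SK-MEL-5 melanoma cells with luciferase driven by the MITF target TRPM1 promoter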", "assay_type": "functional"}, "[5]": {"assay": "toxicity toward HepG2 liver cells – cell-based, plate reader, cherry-pick, antagonist series, cytotoxicity control, dose response (AID 743416)", "assay_type": "functional"}, "[6]": {"assay": "viability loss in HEK293 cells – cell-based, plate reader, cherry-picked samples, cytotoxicity control, dose response (AID 743446)", "assay_type": "functional"}, "[7]": {"assay": "blockade of melanocortin 4 receptor signaling – cell-based, plate reader, cherry pick, counter-screen for LGR2 antagonist project, dose response (AID 743444);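 also: transfected HEK 293 cells stimulated with alpha-MSH peptide; potency of inhibitors of the alpha-MSH evoked signal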", "assay_type": "functional"}, "[8]": {"assay": "A549 cell cytotoxicity, dose response, cytotoxicity control, plate reader, cherry-pick, antagonist series (AID 743412)", "assay_type": "functional, cell-based"}, "[9]": {"assay": "blockers of bursicon-stimulated LGR2 cAMP reporter – cell-based, HEK293, CRE-luciferase reporter, cherry pick, set 2, dose response (AID 743343);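 also: transfected cells were stimulated with diluted bursicon conditioned medium after compound addition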", "assay_type": "functional"}, "Genome polyprotein": {"target": "Genome polyprotein (dengue virus type 2, UniProt P29990)", "sequence (P29990 2492-3391 limits assumed)": "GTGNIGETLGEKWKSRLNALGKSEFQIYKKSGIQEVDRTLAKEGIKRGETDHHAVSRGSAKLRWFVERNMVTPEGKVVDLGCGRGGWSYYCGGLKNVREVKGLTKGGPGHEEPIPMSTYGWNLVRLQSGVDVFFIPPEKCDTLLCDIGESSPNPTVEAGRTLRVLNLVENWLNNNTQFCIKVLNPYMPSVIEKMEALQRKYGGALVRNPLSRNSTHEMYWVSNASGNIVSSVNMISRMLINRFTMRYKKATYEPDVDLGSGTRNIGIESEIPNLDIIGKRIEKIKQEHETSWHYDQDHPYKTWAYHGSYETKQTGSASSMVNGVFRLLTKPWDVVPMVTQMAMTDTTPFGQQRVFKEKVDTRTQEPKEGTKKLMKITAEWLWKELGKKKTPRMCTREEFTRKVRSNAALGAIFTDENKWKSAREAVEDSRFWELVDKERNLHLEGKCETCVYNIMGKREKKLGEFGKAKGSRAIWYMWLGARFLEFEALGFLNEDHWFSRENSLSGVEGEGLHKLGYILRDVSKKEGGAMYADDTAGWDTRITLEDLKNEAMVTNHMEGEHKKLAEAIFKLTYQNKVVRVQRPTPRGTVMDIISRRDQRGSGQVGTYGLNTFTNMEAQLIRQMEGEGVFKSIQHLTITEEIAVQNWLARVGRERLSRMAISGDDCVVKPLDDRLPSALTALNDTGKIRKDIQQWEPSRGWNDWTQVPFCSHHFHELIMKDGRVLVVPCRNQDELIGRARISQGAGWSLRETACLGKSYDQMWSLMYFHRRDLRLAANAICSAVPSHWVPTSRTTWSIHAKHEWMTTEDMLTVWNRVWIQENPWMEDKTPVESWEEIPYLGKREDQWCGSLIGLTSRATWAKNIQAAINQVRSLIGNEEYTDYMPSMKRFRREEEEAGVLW", "assay": "flavivirus cap methylation enzyme inhibition – biochemical, confirmation dose response, primary screen (AID 588689)", "assay_type": "functional"}, "Vero": {"test_system": "Vero", "assay": "viability of Vero cells under compound – cytotoxicity control for flavivirus capping enzyme inhibitors (AID 588742)", "assay_type": "functional", "conditions": "Chlorocebus sabaeus"}, "[10]": {"target": "T5, Corticotropin-releasing factor receptor 2/Corticotropin-releasing factor-binding protein (Homo sapiens, UniProt P24387+Q13324)", "T5 sequence (Q13324 whole entry)": "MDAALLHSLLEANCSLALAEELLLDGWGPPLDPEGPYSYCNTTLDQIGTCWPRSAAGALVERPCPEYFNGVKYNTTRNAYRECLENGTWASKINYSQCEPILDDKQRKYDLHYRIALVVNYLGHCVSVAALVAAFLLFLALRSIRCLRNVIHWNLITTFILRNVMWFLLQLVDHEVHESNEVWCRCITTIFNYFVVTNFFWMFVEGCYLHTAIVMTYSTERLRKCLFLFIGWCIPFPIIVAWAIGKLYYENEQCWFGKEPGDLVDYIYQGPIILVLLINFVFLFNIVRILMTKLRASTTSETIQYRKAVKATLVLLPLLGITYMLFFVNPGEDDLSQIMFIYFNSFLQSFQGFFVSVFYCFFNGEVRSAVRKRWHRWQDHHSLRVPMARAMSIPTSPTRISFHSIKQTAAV", "T5 sequence (P24387 whole entry)": "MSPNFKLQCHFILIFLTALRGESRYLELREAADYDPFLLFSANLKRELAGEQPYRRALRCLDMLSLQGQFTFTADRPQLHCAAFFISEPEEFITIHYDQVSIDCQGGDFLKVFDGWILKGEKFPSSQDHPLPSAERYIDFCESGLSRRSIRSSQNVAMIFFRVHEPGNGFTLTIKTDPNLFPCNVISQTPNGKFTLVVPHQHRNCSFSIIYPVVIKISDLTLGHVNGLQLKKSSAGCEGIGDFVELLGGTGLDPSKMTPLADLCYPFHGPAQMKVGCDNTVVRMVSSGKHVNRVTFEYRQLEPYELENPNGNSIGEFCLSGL", "assay": "activators of CRF receptor 2 with binding protein – uHTS hits, confirmation (AID 602473)", "assay_type": "functional", "conditions": "read-out: EC50_Mean"}, "[11]": {"target": "T5, Corticotropin-releasing factor receptor 2/Corticotropin-releasing factor-binding protein", "assay": "Dose Response confirmation of uHTS hits for small molecule antagonists of the CRF-binding protein and CRF-R2 receptor complex.", "assay_type": "functional", "conditions": "read-out: IC50_Mean"}, "[12]": {"assay": "blockers of CRF-binding protein–CRF-R2 complex – cell-based, uHTS hits, 384-well, dose response (AID 651639)", "assay_type": "functional, Homo sapiens", "conditions": "read-out: IC50_Mean"}}, "note": "The source made the active and inactive calls.", "data": [{"smiles": "CC(C)c1ccc(NC(=O)C(=O)C2C(=O)Nc3ccccc32)cc1", "note": "(stereo not given)", "values": [{"measurement": "AC50", "setting": "[1]", "result": "98.2 µM (active)"}]}, {"smiles": "CN(CC(=O)NCCc1ccccc1)S(=O)(=O)c1ccc(Br)s1", "values": [{"measurement": "IC50", "setting": "Protein skinhead-1", "result": "> 100 µM (inactive)"}]}, {"smiles": "O=C1c2c(Cl)c(Cl)c(Cl)c(Cl)c2C(=O)N1c1nnc[nH]1", "values": [{"measurement": "IC50", "setting": "[2]", "result": "5.3 µM (active)"}, {"measurement": "IC50", "setting": "[3]", "result": "> 100 µM (inactive)"}]}, {"smiles": "COC(=O)c1cc(-c2ccc([N+](=O)[O-])cc2)[nH]n1", "values": [{"measurement": "IC50", "setting": "[2]", "result": "> 100 µM (not active)"}, {"measurement": "IC50", "setting": "[3]", "result": "> 100 µM (inactive)"}]}, {"smiles": "Cc1ccc(-c2cc3onc(-c4ccccc4)c3c(=O)n2C)cc1", "values": [{"measurement": "AC50", "setting": "[4]", "result": "9.76 µM (active)"}, {"measurement": "AC50", "setting": "[5]", "result": "27.6 µM (active)"}, {"measurement": "AC50", "setting": "[6]", "result": "43.6 µM (active)"}, {"measurement": "AC50", "setting": "[7]", "result": "3.13 µM (active)"}, {"measurement": "AC50", "setting": "[8]", "result": "> 52 µM (inactive)"}, {"measurement": "AC50", "setting": "[9]", "result": "1.67 µM (active)"}]}, {"smiles": "O=C(O)c1cnc2ccccc2n1", "values": [{"measurement": "IC50", "setting": "Protein skinhead-1", "result": "> 100 µM (inactive)"}]}, {"smiles": "CCOc1ccc(-n2c(=S)sc3c(O)nc(SCC(=O)C(C)(C)C)nc32)cc1", "values": [{"measurement": "IC50", "setting": "Genome polyprotein", "result": "54.2 µM (active)"}, {"measurement": "CC50", "setting": "Vero", "result": "> 40 µM (active)"}]}, {"smiles": "O=C1C(NS(=O)(=O)c2cccs2)=C(N2CCN(c3cccc(Cl)c3)CC2)C(=O)c2ccccc21", "values": [{"measurement": "CC50", "setting": "Vero", "result": "> 40 µM (active)"}]}, {"smiles": "Oc1ccc(Br)cc1/C=N/n1c(S)nnc1C1CCCCC1", "values": [{"measurement": "AC50", "setting": "[1]", "result": "8.32 µM (active)"}]}, {"smiles": "O=C(c1cccc(S(=O)(=O)N2CCOCC2)c1)N(Cc1ccc(F)cc1)Cc1ccco1", "values": [{"measurement": "EC50", "setting": "[10]", "result": "> 53 µM (inactive)"}, {"measurement": "IC50", "setting": "[11]", "result": "10.6 µM (active)"}, {"measurement": "IC50", "setting": "[12]", "result": "> 20 µM (inactive)"}]}]}
